Laboratory results taken from patent US11020482B2, “Methods and compositions related to inhibition of viral entry” (UNIVERSITY OF UTAH RESEARCH FOUNDATION, priority 2011, dated 2021).
Where two headings read alike, the source gives them in different places.

Experiments:
[1] = tested on: HIV HXB2 strain pseudovirions; assay: Pseudovirion viral infectivity (entry) assay, HXB2; type: cell-based, HIV-1
Procedure: (§1) This study included the use of the HIV HXB2 strain and the HIV JRFL strain. Viral infectivity was measured essentially as previously described (Hamburger 2005) with several modifications. 8 μg/mL DEAE-Dextran was used as a fusion enhancer in all assays. Media was changed 22-26 h following infection. […] Fits were weighted by the absolute s.e.m. from quadruplicate points with the minimum allowable error set to 1%.
(§2) Pseudovirion infectivity assays were carried out using HIV HXB2 strain and HIV JRFL strain luciferase reporter pseudovirions (NL4-3 strain) and HOS-CD4-CXCR4 (for HXB2) or HOS-CD4-CCR5 (for JRFL) target cells (Welch, 2007 and 2010). Inhibitors curves were generated using six concentration points measured in quadruplicate, and luciferase counts were normalized to an uninhibited control. Inhibition curves were fit using a standard IC50 equation (1-c/(IC50+c)) weighting each concentration point by its standard error in KaleidaGraph™ (Synergy Software). Reported IC50 values are the average of at least 2 independent assays.

[2] = tested on: HIV JRFL strain pseudovirions; assay: Pseudovirion viral infectivity (entry) assay, JRFL; type: cell-based, HIV-1
Procedure: as §1, §2

E560K/V570I HXB2 = assay: Pseudovirion entry assay, resistant strain E560K/V570I; type: cell-based, HIV-1; details: Table 4; resistance mutation discovered against PIE7-dimer
Procedure: as §2

Q577R HXB2 = assay: Pseudovirion entry assay, resistant strain Q577R; type: cell-based, HIV-1; details: Table 4; resistance mutation discovered against PIE12-trimer
Procedure: as §2

[3] = tested on: HIV HXB2 strain pseudovirions; details: Table 5; value marked * (from 20); cited from earlier work
[4] = tested on: HIV JRFL strain pseudovirions; details: Table 5; value marked * (from 20); cited from earlier work
HIV-1 isolate IIIB = assay: Replication competent virus, PBMC target cells; type: cell-based; details: envelope subtype B
HIV-1 isolate Ba-L = assay: Replication competent virus, PBMC target cells; type: cell-based; details: envelope subtype B
HIV-1 isolate JR-CSF = assay: Replication competent virus, PBMC target cells; type: cell-based; details: envelope subtype B
HIV-1 isolate JR-FL = assay: Replication competent virus, PBMC target cells; type: cell-based; details: envelope subtype B
HIV-1 isolate 92UG029 = assay: Replication competent virus, PBMC target cells; type: cell-based; details: isolate 92UG029, envelope subtype A
HIV-1 isolate 92UG037 = assay: Replication competent virus, PBMC target cells; type: cell-based; details: isolate 92UG037, envelope subtype A
HIV-1 isolate 93IN101 = assay: Replication competent virus, PBMC target cells; type: cell-based; details: isolate 93IN101, envelope subtype C
HIV-1 isolate 92BR025 = assay: Replication competent virus, PBMC target cells; type: cell-based; details: isolate 92BR025, envelope subtype C
HIV-1 isolate 92UG001 = assay: Replication competent virus, PBMC target cells; type: cell-based; details: isolate 92UG001, envelope subtype D
HIV-1 isolate 92UG046 = assay: Replication competent virus, PBMC target cells; type: cell-based; details: isolate 92UG046, envelope subtype D
HIV-1 isolate CMU02 = assay: Replication competent virus, PBMC target cells; type: cell-based; details: isolate CMU02, envelope subtype AE
HIV-1 isolate 93TH073 = assay: Replication competent virus, PBMC target cells; type: cell-based; details: isolate 93TH073, envelope subtype E
HIV-1 isolate CMU06 = assay: Replication competent virus, PBMC target cells; type: cell-based; details: isolate CMU06, envelope subtype E
HIV-1 isolate 93BR019 = assay: Replication competent virus, PBMC target cells; type: cell-based; details: isolate 93BR019, envelope subtype BF
HIV-1 isolate 93BR020 = assay: Replication competent virus, PBMC target cells; type: cell-based; details: isolate 93BR020, envelope subtype F
HIV-1 isolate 93BR029 = assay: Replication competent virus, PBMC target cells; type: cell-based; details: isolate 93BR029, envelope subtype F
HIV-1 isolate G3 = assay: Replication competent virus, PBMC target cells; type: cell-based; details: isolate G3, envelope subtype G
HIV-1 isolate RU570 = assay: Replication competent virus, PBMC target cells; type: cell-based; details: isolate RU570, envelope subtype G
[5] = tested on: replication competent HIV strains that cover envelope subtypes A, B, C, D, E, F, and G; assay: Inhibitory breadth against replication competent virus panel; type: cell-based, HIV-1
HIV = assay: Infectivity assay; type: cell-based
[6] = Table 4, cholesterol potency-enhancing cargo

HPCDYPEWQWLCELGK [PIE12]
IC50 ([1]; Table 2, pseudovirion entry): 37 nM
IC50 [1, 6]: 37 nM
IC50 ([2]; Table 2, pseudovirion entry): 578 nM
IC50 [2, 6]: 580 nM
IC50 (E560K/V570I HXB2): 240 nM
IC50 (Q577R HXB2): 10200 nM
IC50 [3]: 37 ± 2.3 nM
IC50 [4]: 580 ± 21.4 nM

KGACDYPEWRWLCAA [PIE2]
IC50 ([2]; Table 2, pseudovirion entry): 66000 nM

enfuvirtide [FUZEON ®]
IC50 ([1]; Table 2, pseudovirion entry): 3.7 nM
IC50 ([2]; Table 2, pseudovirion entry): 5 nM
IC50 (HIV-1 isolate IIIB): 28.3 nM
IC50 (HIV-1 isolate Ba-L): 19.7 nM
IC50 (HIV-1 isolate JR-CSF): 7.03 nM
IC50 (HIV-1 isolate JR-FL): 1.65 nM
IC50 (HIV-1 isolate 92UG029): 191 nM
IC50 (HIV-1 isolate 92UG037): 41.5 nM
IC50 (HIV-1 isolate 93IN101): 22.4 nM
IC50 (HIV-1 isolate 92BR025): 305 nM
IC50 (HIV-1 isolate 92UG001): 182 nM
IC50 (HIV-1 isolate 92UG046): 130 nM
IC50 (HIV-1 isolate CMU02): 43.8 nM
IC50 (HIV-1 isolate 93TH073): 198 nM
IC50 (HIV-1 isolate CMU06): 5.65 nM
IC50 (HIV-1 isolate 93BR019): > 1000 nM
IC50 (HIV-1 isolate 93BR020): 58.5 nM
IC50 (HIV-1 isolate 93BR029): 18.6 nM
IC50 (HIV-1 isolate G3): 23.3 nM
IC50 (HIV-1 isolate RU570): 37 nM
fold less inhibition than PIE12-trimer ([5]; HIV subtype A viruses): > 100 fold
fold less inhibition than PIE12-trimer ([5]; subtype C viruses): ~60 fold

KKGACESPEWRWLCAA [2K-PIE1]
IC50 ([2]; Table 2, pseudovirion entry): > 100000 nM

KKGACELLGWEWAWLCAA [D10-p5]
IC50 ([2]; Table 2, pseudovirion entry): > 25000 nM
inhibit infection of cells (HIV): inhibit infection of cells

KGACDYPEWQWLCAA [PIE7]
IC50 ([1]; Table 2, pseudovirion entry): 620 nM
IC50 ([2]; Table 2, pseudovirion entry): 24000 nM

HPCDYPEWQWLCKLGK [PIE13]
IC50 ([1]; Table 2, pseudovirion entry): 41 nM
IC50 ([2]; Table 2, pseudovirion entry): 1470 nM

GACDYPEWQWLCAAGK [PIE7-GK]
IC50 ([1]; Table 2, pseudovirion entry): 390 nM
IC50 ([2]; Table 2, pseudovirion entry): 15800 nM

KGACDYPEWQWLCAAGK [K-PIE7-GK]
IC50 ([2]; Table 2, pseudovirion entry): 14800 nM

HPCDYPEWQWLCRLGK [PIE14]
IC50 ([1]; Table 2, pseudovirion entry): 33 nM
IC50 ([2]; Table 2, pseudovirion entry): 1050 nM

KGACDYKEWQWLCAA [PIE8]
IC50 ([2]; Table 2, pseudovirion entry): ~110000 nM

HACDYPEWQWLCELGK [PIE15]
IC50 ([1]; Table 2, pseudovirion entry): 67 nM
IC50 ([2]; Table 2, pseudovirion entry): 1450 nM

GACDYPEWQWLCAAGKK [PIE7-GKK]
IC50 ([1]; Table 2, pseudovirion entry): 380 nM
IC50 ([2]; Table 2, pseudovirion entry): 19100 nM
